In US20230064034A1, “LIGHT STABLE LIQUID DISINFECTANT COMPOSITIONS” (Onyx Lotus, LLC, priority 2021, published 2023):

System: E. coli
Test: Durability test: wiped aluminum coupons, surface tested for E. coli by ASTM E-2315
Assay type: cell-based, Escherichia coli
Conditions: aluminum coupon wiped 40 times
Description: The durability test was designed to identify the number of times a surface can be wiped under pressure and prevent growth of pathogens on the surface after the light stable disinfectant was applied. The liquid composition contains 100 mL distilled water, 1.25 g EDTA, 0.01 g silver nitrate, and 0.5 g PVP K-30 having a 100 ppm concentration of silver. Five test solutions were evaluated: 10 mL liquid disinfectant composition, sodium hypochlorite, […] (peracetic acid), and Lysol. This 100 ppm solution of silver solution was loaded into a sprayer and sprayed onto 1×1'' sterilized aluminum or stainless-steel coupons. The aluminum coupons were wiped with a sterilized non-scratch scouring sponge or a soft cloth with a 1 kg weight on top of the non-scratch scouring sponge or a soft cloth then autoclaved. After the aluminum coupons had cooled to room temperature, the test solutions were sprayed onto the coupons. […]

OCl [Sodium hypochlorite]
reduction: 0%
